Paper PMC5206724, “Insensitivity to pain induced by a potent selective closed-state Nav1.7 inhibitor” (Scientific Reports, 2017)
Read-outs that look alike come from different tables or passages of the source.

Legend:
hNav1.4 [1] = target: T1, hNav1.4 (Homo sapiens, UniProt P35499); assay: cell-based; settings: QPatch; read-out: Fitted Emax hNav1.4
hNav1.2 [2] = target: T2, hNav1.2 (Homo sapiens, UniProt Q99250); assay: cell-based; settings: QPatch; read-out: Fitted Emax hNav1.2
hNav1.7 [3] = target: T3, hNav1.7 (Homo sapiens, UniProt Q15858); assay: cell-based; settings: QPatch; read-out: Fitted Emax hNav1.7
T3 construct: host or cells: HEK293

[4] = for maximum tolerated dose (MTD), IT: intrathecal; for lesions to the face and shoulders: rats; for abnormal proprioception of hind paws / abnormal stepping / flaccidity / hindlimb weakness: baseline 0/7
hNav1.6 [5] = target: T4, hNav1.6 (Homo sapiens, UniProt Q9UQD0); assay: cell-based; settings: QPatch; for Emax: read-out: Fitted Emax hNav1.6
[6] = for mentation BAR (bright, alert and responsive) / normal corneal reflex / normal pinna reflex / normal placing stepping / scratching: 1.4 mg/100 μl perineural
Source text: Rats ~250–300 g were placed under Isoflurane anesthesia (4% for induction, 2% for maintenance). A single hip and proximal hind-leg area were shaved and the injection area prepped with alternating applications of chlorhexidine 2% soln. and isopropyl alcohol 70%. A pelvic notch just distal to the greater trochanter was located with palpation and a starter hole was made through the dermis using a 20G hypodermic needle. A 22G nerve stimulating injection needle (ProBloc II, cat#HN3S-40, Halyard Health) connected to a peripheral nerve stimulation device (EZstim II model ES400, Life-Tech, Inc.) was placed into the starter hole. The nerve stimulator was set to 0.7 mA and the injection needle was gently advanced in a line parallel to the femur until localized dorsal or plantar flexion of the foot was observed. Generalized muscle twitching involving primary twitching on the quadriceps muscle was considered a negative response and the needle was carefully re-positioned until the appropriate localized foot flicking was observed. […] The device was increased back to 0.2 mA and if twitching was still observed, the 100 μL injection was given.

hNav1.1 [7] = target: T5, hNav1.1 (Homo sapiens, UniProt P35498); assay: cell-based; settings: QPatch; read-out: Fitted Emax hNav1.1
hNav1.6 [8] = target: T4, hNav1.6; assay: cell-based; settings: manual patch clamp
[9] = 0.5 μg/h IT infusion; in words
Method: Efficacy was assessed in the hotplate and tail flick tests at various time points before pump implantation, during infusion and after discharge of the pumps.
All peptides were formulated in DPBS (no Ca^2+ and Mg^2+) and stored at 4 °C until use. For bolus administration, 10 μl of compound solution or vehicle were injected via the IT catheter followed by 10 μl saline flush. […] The osmotic pump was implanted subcutaneously above the scapula. Animals were excluded from behavioral studies if any motor dysfunction was noted following IT injection, if baseline thresholds were >90% or <10% of the cut-off value in the tail flick, hotplate and Hargreaves test, if there was significant leak (>20 μl) while injecting formalin into the paw or any malfunction of the metal bands or formalin apparatus. Intrathecal compound was administered 15 min–1 h before commencing behavioral testing. Intrathecal-cannulated rats were trained on the behavioral apparatus for at least two days before baseline withdrawal latencies were taken. All behavioral tests were conducted by an investigator blinded to group and treatment.

hNav1.1 [10] = target: T5, hNav1.1; assay: cell-based; settings: manual patch clamp
hNav1.4 [11] = target: T1, hNav1.4; assay: cell-based; settings: manual patch clamp; read-out: Fitted Emax hNav1.4
hNav1.2 [12] = target: T2, hNav1.2; assay: cell-based; settings: manual patch clamp; read-out: Fitted Emax hNav1.2
hNav1.7 [13] = target: T3, hNav1.7; assay: cell-based; settings: manual patch clamp; read-out: Fitted Emax hNav1.7
hNav1.5 = hNav1.5 (Homo sapiens, UniProt Q14524); assay: cell-based; settings: QPatch; read-out: Fitted Emax hNav1.5
hNav1.3 = hNav1.3 (Homo sapiens, UniProt Q9NY46); assay: cell-based; settings: QPatch; read-out: Fitted Emax hNav1.3
[14] = 0.5 μg/10 μl IT, 2 h post dose (1 h post formalin)
[15] = 2.5 μg/10 μl IT, 2 h post dose (1 h post formalin)
[16] = 2.5 μg/10 μl IT, first 2 animals not assessed
[17] = 2 μg/10 μl IT, 30 min post dosing
[18] = 2 μg/10 μl IT, 90 min post dosing
[19] = 2 μg/10 μl IT, formalin study, in words

T1 sequence (P35499 whole entry): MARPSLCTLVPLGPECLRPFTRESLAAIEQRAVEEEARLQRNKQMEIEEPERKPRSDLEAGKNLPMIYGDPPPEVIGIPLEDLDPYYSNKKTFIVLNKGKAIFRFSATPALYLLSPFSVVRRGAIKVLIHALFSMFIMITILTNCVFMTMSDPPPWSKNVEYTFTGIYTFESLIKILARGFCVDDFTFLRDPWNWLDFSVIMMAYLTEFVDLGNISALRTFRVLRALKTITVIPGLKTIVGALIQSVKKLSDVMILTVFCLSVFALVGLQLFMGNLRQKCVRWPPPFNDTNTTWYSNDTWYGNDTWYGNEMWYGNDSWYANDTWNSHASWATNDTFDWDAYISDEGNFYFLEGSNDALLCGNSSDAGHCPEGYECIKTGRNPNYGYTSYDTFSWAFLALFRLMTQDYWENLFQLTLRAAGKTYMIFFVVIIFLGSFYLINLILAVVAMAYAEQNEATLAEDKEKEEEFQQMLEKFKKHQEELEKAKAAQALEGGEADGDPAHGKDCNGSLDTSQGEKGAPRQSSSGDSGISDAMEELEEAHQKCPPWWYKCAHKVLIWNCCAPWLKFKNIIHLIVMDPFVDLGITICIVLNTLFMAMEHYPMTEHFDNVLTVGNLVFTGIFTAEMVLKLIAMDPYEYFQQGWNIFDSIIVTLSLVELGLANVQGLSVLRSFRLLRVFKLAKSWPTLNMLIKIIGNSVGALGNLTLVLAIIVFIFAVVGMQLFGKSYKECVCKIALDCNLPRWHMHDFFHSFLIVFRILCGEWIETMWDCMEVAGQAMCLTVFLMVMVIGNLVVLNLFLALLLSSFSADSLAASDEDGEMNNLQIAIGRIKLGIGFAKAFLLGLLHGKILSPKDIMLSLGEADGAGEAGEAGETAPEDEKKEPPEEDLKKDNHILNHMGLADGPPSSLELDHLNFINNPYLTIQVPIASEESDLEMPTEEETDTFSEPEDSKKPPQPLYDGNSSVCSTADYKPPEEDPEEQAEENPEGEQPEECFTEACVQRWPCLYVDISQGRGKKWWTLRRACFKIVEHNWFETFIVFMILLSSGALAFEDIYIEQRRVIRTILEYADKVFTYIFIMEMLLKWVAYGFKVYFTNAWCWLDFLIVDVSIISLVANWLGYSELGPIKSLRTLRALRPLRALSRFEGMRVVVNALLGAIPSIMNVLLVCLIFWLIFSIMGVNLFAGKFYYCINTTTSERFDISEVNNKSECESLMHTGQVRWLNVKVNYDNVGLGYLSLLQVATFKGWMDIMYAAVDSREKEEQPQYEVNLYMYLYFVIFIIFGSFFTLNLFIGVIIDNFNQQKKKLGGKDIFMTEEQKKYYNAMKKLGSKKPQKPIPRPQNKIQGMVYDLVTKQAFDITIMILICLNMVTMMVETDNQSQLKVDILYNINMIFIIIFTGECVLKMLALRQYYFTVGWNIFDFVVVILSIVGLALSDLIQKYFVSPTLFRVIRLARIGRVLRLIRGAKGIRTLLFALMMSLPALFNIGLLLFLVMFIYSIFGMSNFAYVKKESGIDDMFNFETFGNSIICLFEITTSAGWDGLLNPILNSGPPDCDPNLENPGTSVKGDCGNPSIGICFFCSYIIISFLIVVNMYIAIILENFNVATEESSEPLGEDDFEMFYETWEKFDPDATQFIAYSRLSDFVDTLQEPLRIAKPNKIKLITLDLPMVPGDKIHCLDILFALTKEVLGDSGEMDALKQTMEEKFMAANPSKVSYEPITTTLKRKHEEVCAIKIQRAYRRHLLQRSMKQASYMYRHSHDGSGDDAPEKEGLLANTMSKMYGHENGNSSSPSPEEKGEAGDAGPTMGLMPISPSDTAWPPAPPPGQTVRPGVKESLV
T2 sequence (Q99250 whole entry): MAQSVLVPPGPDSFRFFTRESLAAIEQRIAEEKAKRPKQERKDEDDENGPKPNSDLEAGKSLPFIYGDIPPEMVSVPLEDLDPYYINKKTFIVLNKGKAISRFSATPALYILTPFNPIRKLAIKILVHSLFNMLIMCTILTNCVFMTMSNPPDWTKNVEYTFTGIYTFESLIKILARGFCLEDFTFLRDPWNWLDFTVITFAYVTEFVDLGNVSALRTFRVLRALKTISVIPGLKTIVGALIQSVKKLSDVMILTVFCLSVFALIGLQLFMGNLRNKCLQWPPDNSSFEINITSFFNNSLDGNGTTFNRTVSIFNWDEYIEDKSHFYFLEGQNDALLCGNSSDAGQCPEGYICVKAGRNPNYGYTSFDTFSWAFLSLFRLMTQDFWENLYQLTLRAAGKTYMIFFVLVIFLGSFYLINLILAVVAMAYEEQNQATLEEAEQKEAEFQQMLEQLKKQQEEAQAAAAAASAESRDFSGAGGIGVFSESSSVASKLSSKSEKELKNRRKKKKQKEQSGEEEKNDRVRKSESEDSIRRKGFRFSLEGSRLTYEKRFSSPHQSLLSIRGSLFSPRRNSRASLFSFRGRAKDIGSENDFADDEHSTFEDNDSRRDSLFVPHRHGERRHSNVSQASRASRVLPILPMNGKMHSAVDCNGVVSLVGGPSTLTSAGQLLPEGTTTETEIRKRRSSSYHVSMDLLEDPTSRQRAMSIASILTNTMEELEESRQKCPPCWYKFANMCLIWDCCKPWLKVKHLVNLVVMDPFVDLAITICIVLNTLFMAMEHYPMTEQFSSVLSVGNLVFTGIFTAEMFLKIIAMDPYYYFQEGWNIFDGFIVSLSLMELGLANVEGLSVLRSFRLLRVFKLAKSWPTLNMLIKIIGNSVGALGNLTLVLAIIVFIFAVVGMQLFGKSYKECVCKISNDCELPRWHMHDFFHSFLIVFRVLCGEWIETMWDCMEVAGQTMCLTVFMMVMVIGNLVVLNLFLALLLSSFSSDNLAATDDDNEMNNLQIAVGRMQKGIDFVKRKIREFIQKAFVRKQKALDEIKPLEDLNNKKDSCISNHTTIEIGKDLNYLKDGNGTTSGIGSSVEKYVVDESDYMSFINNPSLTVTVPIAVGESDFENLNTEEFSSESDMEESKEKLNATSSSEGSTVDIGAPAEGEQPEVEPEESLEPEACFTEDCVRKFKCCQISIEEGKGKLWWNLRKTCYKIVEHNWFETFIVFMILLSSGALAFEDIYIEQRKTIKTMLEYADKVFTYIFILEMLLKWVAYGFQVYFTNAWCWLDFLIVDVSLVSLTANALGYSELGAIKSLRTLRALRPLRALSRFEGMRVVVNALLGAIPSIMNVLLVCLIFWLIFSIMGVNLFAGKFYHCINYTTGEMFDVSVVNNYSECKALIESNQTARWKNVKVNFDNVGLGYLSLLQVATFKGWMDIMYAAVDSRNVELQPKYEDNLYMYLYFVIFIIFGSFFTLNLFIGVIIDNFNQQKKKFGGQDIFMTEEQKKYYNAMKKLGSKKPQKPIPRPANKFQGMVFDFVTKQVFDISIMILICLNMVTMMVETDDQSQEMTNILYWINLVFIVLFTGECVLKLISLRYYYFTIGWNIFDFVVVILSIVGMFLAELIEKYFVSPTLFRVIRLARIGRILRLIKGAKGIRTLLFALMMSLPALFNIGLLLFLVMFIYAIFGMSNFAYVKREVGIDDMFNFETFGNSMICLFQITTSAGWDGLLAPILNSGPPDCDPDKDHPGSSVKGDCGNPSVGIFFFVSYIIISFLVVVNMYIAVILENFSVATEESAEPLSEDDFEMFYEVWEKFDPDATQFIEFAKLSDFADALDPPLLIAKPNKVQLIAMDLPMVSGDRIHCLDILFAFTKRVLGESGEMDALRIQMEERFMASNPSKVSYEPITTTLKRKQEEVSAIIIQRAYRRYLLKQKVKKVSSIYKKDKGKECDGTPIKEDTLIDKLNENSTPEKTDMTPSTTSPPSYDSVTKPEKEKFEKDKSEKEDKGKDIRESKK

CSCC[C@@H]1NC(=O)CNC(=O)[C@H](CCC(=O)O)NC(=O)[C@@H]2CSSC[C@H](NC(=O)[C@H](Cc3ccc(O)cc3)NC(=O)[C@@H]3CCCN3C(=O)CN)C(=O)N[C@@H](CCC(N)=O)C(=O)N[C@@H](CCCCN)C(=O)N[C@@H](Cc3c[nH]c4ccccc34)C(=O)N[C@@H](CCSC)C(=O)N[C@@H](CCC(N)=O)C(=O)N[C@@H]([C@@H](C)O)C(=O)N[C@H]3CSSC[C@H](NC(=O)[C@H](C(C)C)NC1=O)C(=O)N[C@@H](CCCNC(=N)N)C(=O)N[C@@H](CC(C)C)C(=O)N[C@@H](Cc1c[nH]c4ccccc14)C(=O)N[C@H](C(=O)N[C@@H](CCCCN)C(=O)N[C@@H](CCCCN)C(=O)N[C@@H](CCCCN)C(=O)N[C@@H](CC(C)C)C(=O)N[C@@H](CC(C)C)C(=O)O)CSSC[C@H](NC(=O)[C@H](CCCCN)NC(=O)[C@H](CCCNC(=N)N)NC(=O)[C@H](CCC(=O)O)NC(=O)[C@H](CO)NC(=O)[C@H](CC(=O)O)NC3=O)C(=O)N2 [JNJ63955918]
Emax (hNav1.4 [1]): 100%
Emax (hNav1.2 [2]): 27.6 ± 7.3%
Emax (hNav1.7 [3]): 79.1 ± 3.4%
gross motor normal ([4]; 0.5 μg/10 μl IT, 1 h post dose): 6/6
normal proprioception ([4]; 0.5 μg/10 μl IT, 1 h post dose): 6/6
gross motor normal [4, 14]: 6/6
normal proprioception [4, 14]: 6/6
abrasions at euthanasia ([4]; 0.5 μg/10 μl IT, first 2 animals not assessed): 0/4
gross motor normal ([4]; 2.5 μg/10 μl IT, 1 h post dose): 6/6
normal proprioception ([4]; 2.5 μg/10 μl IT, 1 h post dose): 6/6
gross motor normal [4, 15]: 6/6
normal proprioception [4, 15]: 6/6
excessive scratching leading to upper body skin abrasion (animals affected) ([4]; 2.5 μg/10 μl IT, blinded repeat study): 2 of 4
abrasions at euthanasia [4, 16]: 2/4
scratching [4, 16]: 2/4
duration of muscle weakness ([4]; 7.5 μg/10 μl IT): < 1 h
incidence of mild reversible muscle weakness ([4]; 7.5 μg/10 μl IT): approximately 50%
scabbing ([4]; IT dose range finding, in words): Scabbing on face/neck/shoulders was observed in some rats
motor impairment ([4]; IT doses above 7.5 μg/10 μl, in words): Dose related motor impairment became more obvious and the duration of the effects was longer
tolerability ([4]; IT doses up to 5 μg/10 μl, in words): well tolerated with no detectable abnormal behaviors
in-vivo safety window ([4]; rat, in vivo): 7–16 fold
therapeutic margin vs ziconotide ([4]; rat, in vivo): greater than that of ziconotide
maximum tolerated dose (MTD), IT ([4]; rat): 5 μg/10 μl
lesions to the face and shoulders ([4]; in words): often noticed
Emax (hNav1.6 [5]): 100%
scratching / behavioral abnormalities ([6]; 1.4 mg/100 μl peri-sciatic, in words): Scratching was observed in some animals but no other behavioral abnormalities were noted
mentation BAR (bright, alert and responsive) ([6]; 15 min post dose): 7/9
normal corneal reflex ([6]; 15 min post dose): 9/9
normal pinna reflex ([6]; 15 min post dose): 9/9
normal placing stepping ([6]; 15 min post dose): 9/9
scratching ([6]; 15 min post dose): 0/9
mentation BAR (bright, alert and responsive) ([6]; 30 min post dose): 4/9
normal corneal reflex ([6]; 30 min post dose): 9/9
normal pinna reflex ([6]; 30 min post dose): 9/9
normal placing stepping ([6]; 30 min post dose): 9/9
scratching ([6]; 30 min post dose): 1/9
mentation BAR (bright, alert and responsive) ([6]; 60 min post dose): 5/9
normal corneal reflex ([6]; 60 min post dose): 9/9
normal pinna reflex ([6]; 60 min post dose): 9/9
normal placing stepping ([6]; 60 min post dose): 9/9
scratching ([6]; 60 min post dose): 2/9
mentation BAR (bright, alert and responsive) ([6]; 120 min post dose): 6/9
normal corneal reflex ([6]; 120 min post dose): 9/9
normal pinna reflex ([6]; 120 min post dose): 9/9
normal placing stepping ([6]; 120 min post dose): 9/9
scratching ([6]; 120 min post dose): 2/9
mentation BAR (bright, alert and responsive) ([6]; 240 min post dose): 8/9
normal corneal reflex ([6]; 240 min post dose): 9/9
normal pinna reflex ([6]; 240 min post dose): 9/9
normal placing stepping ([6]; 240 min post dose): 9/9
scratching ([6]; 240 min post dose): 1/9
mentation BAR (bright, alert and responsive) ([6]; 24 h post dose): 9/9
normal corneal reflex ([6]; 24 h post dose): 9/9
normal pinna reflex ([6]; 24 h post dose): 9/9
normal placing stepping ([6]; 24 h post dose): 9/9
gross motor deficits ([6]; 2.5 mg/100 μl peri-sciatic, in words): absence of any gross motor deficits
tolerability, peri-sciatic ([6]; up to 2.5 mg/100 μl, in words): well tolerated
Emax (hNav1.1 [7]): 100%
IC50 (hNav1.6 [8]; holding −120 mV, test −10 mV, 0.1% BSA, 22–24 °C, read-out: pIC50 hNav1.6 (converted)): 1000 nM
Emax (hNav1.6 [8]; read-out: Fitted Emax hNav1.6): 100%
body weight gain vs vehicle [9]: gained weight at the same rate
motor or other behavioral abnormalities [9]: No motor or other behavioral abnormalities were observed
scabbing [9]: Some scabbing on the face, shoulders, hind limbs and tail
IC50 (hNav1.1 [10]; holding −120 mV, test −10 mV, 0.1% BSA, 22–24 °C, read-out: pIC50 hNav1.1 (converted)): 10000 nM
Emax (hNav1.1 [10]; read-out: Fitted Emax hNav1.1): 100%
Emax (hNav1.4 [11]): 100%
Emax (hNav1.2 [12]): 50 ± 18.5%
Emax (hNav1.7 [13]): 94.8 ± 3.3%

CSCC[C@@H]1NC(=O)CNC(=O)[C@H](CCC(=O)O)NC(=O)[C@@H]2CSSC[C@H](NC(=O)[C@@H](N)Cc3ccc(O)cc3)C(=O)N[C@@H](CCC(N)=O)C(=O)N[C@@H](CCCCN)C(=O)N[C@@H](Cc3c[nH]c4ccccc34)C(=O)N[C@@H](CCSC)C(=O)N[C@@H](Cc3c[nH]c4ccccc34)C(=O)N[C@@H]([C@@H](C)O)C(=O)N[C@H]3CSSC[C@H](NC(=O)[C@H](C(C)C)NC1=O)C(=O)N[C@@H](CCCNC(=N)N)C(=O)N[C@@H](CC(C)C)C(=O)N[C@@H](Cc1c[nH]c4ccccc14)C(=O)N[C@H](C(=O)N[C@@H](CCCCN)C(=O)N[C@@H](CCCCN)C(=O)N[C@@H](CCCCN)C(=O)N[C@@H](CC(C)C)C(=O)N[C@@H](Cc1c[nH]c4ccccc14)C(=O)O)CSSC[C@H](NC(=O)[C@H](CCCCN)NC(=O)[C@H](CCCNC(=N)N)NC(=O)[C@H](CCC(=O)O)NC(=O)[C@H](CO)NC(=O)[C@H](CC(=O)O)NC3=O)C(=O)N2 [ProTX-II, reference compound]
Emax (hNav1.5): 100%
Emax (hNav1.4 [1]): 100%
Emax (hNav1.2 [2]): 100%
Emax (hNav1.3): 100%
abnormal proprioception of hind paws [4, 17]: 2/7
abnormal stepping [4, 17]: 2/7
flaccidity [4, 17]: 1/7
hindlimb weakness [4, 17]: 2/7
abnormal proprioception of hind paws [4, 18]: 0/7
abnormal stepping [4, 18]: 0/7
flaccidity [4, 18]: 0/7
hindlimb weakness [4, 18]: 2/7
abrasions and scabs [4, 19]: Abrasions and scabs to the face, neck, and shoulders were observed in some
effect on motor function [4, 19]: without any severe effect on motor function
motor effects just above efficacious dose ([4]; rat, IT, in words): exerts profound motor effects at doses just above the efficacious analgesic dose
motor effects above maximum tolerated IT dose ([4]; rat, higher than 2 μg/10 μl, in words): dose-related motor abnormalities that progressed from transient rear weakness, to paralysis of both the hind and forelimbs, slowing of respiration and death
maximum tolerated dose (MTD), IT ([4]; rat): 2 μg/10 μl
lesions to the face and shoulders ([4]; in words): often noticed
IC50 (hNav1.6 [5]; CHO cells, holding −60 mV, 0.1% BSA, ~22 °C, ± SEM, read-out: pIC50 hNav1.6 (converted)): 31.6 nM
Emax (hNav1.6 [5]): 100%
ambulation ([6]; 250 μg/100 μl peri-sciatic, in words): No effect upon ambulation
tolerability, peri-sciatic ([6]; 250 μg/100 μl, in words): well tolerated at the highest dose tested
Emax (hNav1.1 [7]): 100%
